Data: patent publication US10683260B2, “Crystalline form of sacubitril sodium salt” (NORATECH PHARMACEUTICALS, INC., priority 2016, dated 2020)

Legend:
[1] = free acid; background statement; cited from earlier work
[2] = Determination of the hygroscopicity (water absorption in artificial climate chamber); format: physicochemical; details: for Water absorption, %: open weighing bottle, 25±1° C., relative humidity 43.5±2%; for water content: open container, 25° C., relative humidity 43.5%, 3 hours
Protocol: 1. Take a dry stuffed glass weighing bottle (outer diameter 50 mm, height 15 mm) in the artificial climate chamber (set temperature is 25±1° C., relative humidity is 43.5±2%) and weight it (m1).
2. Take the appropriate amount of the crystalline form in the present invention, and place it in the abovementioned weighing bottle and lay it inside the weighing bottle. The thickness of the test sample is generally about 1 mm. Weight the sample (m2).
3. Uncover the weighing bottle and place it with the bottle cap under constant temperature and humidity (set temperature is 25±1° C., relative humidity is 43.5±2%).
4. Put the cap back on the weighing bottle before weighing, and then weight it (m3). The water absorption percentage for each time point is calculated by the formula=(m3−m2)/(m2−m1)×100%.

AT1 receptor = target: T1, AT1 receptor (Homo sapiens, UniProt P30556); details: AT1 versus AT2 receptor; background statement; cited from earlier work
T1 sequence (P30556 1-359): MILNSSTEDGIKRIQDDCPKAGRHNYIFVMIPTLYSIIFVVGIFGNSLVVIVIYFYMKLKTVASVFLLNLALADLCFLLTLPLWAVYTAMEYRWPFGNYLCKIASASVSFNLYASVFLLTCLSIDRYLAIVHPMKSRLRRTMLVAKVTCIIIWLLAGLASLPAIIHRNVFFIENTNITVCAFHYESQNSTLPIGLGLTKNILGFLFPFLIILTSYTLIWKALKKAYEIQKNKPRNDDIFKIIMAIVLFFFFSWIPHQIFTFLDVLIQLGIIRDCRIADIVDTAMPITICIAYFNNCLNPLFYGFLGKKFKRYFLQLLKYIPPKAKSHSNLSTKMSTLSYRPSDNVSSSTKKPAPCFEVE

Row | Molecule | Water absorption, % ([2]; 1.5 h) [%] | Water absorption, % ([2]; 3 h) [%] | other results
1 | CCOC(=O)[C@H](C)C[C@@H](Cc1ccc(-c2ccccc2)cc1)NC(=O)CCC(=O)O [sacubitril, 4-{[(2S,4R)-1-([1,1′-biphenyl]-4-yl)-5-ethoxy-4-methyl-5-oxopentan-2-yl]amino}-4-oxobutanoic acid] |  |  | water solubility (in words) [1]: poor water solubility
2 | CCOC(=O)[C@H](C)C[C@@H](Cc1ccc(-c2ccccc2)cc1)NC(=O)CCC(=O)[O-].[Na+] [B] | 0.5 | 1.0 | 
3 | CCOC(=O)[C@H](C)C[C@@H](Cc1ccc(-c2ccccc2)cc1)NC(=O)CCC(=O)[O-].[Na+] [E] | 2.4 | 4.3 | 
4 | CCOC(=O)[C@H](C)C[C@@H](Cc1ccc(-c2ccccc2)cc1)NC(=O)CCC(=O)[O-].[Na+] [D] | 1.5 | 3.2 | 
5 | CCOC(=O)[C@H](C)C[C@@H](Cc1ccc(-c2ccccc2)cc1)NC(=O)CCC(=O)[O-].[Na+] [C] | 1.2 | 2.4 | water content ([2]; listed as crystalline form C): 2.4%
6 | CCOC(=O)[C@H](C)C[C@@H](Cc1ccc(-c2ccccc2)cc1)NC(=O)CCC(=O)[O-].[Na+] [A] | 0.6 | 1.4 | water content ([2]; listed as crystalline form A): 1.4%
7 | CCOC(=O)[C@H](C)C[C@@H](Cc1ccc(-c2ccccc2)cc1)NC(=O)CCC(=O)[O-].[Na+] [sacubitril sodium salt X, reference compound] | 8.3 | 11.0 | hygroscopicity (in words) ([2]; solid form, no conditions stated): great hygroscopicity
8 | AngII |  |  | affinity for the AT1 receptor relative to the AT2 receptor (AT1 receptor): 300 times
